HELM strings list units from the 5' end as sugar, base in round brackets, then linkage (d deoxyribose, r ribose, m 2'-O-methyl, p phosphodiester). Strings are as the collection lists them; they lack the last nucleoside at the 3' end of the tested compound. [moe] = 2'-O-(2-methoxyethyl) (MOE); [sp] = phosphorothioate linkage; [m5C] = 5-methylcytosine

The target in the data set is C9ORF72. In words: mouse, dose not given. Particulars: ASO.
With “RNA1{[moe]([m5C])[sp].[moe]([m5C])[sp].[moe]([m5C])[sp].[moe](G)[sp].[moe](G)[sp].d([m5C])[sp].d([m5C])[sp].d([m5C])[sp].d([m5C])[sp].d(T)[sp].d(A)[sp].d(G)[sp].d([m5C])[sp].d(G)[sp].d([m5C])[sp].[moe](G)[sp].[moe]([m5C])[sp].[moe](G)[sp].[moe](A)}$$$$ (last 3' nucleoside missing)”, the 3 h FOB score is 6 score 0-7.
In the case of “RNA1{[moe](T)[sp].[moe](G)p.[moe](G)p.[moe](T)p.[moe](T)p.[moe](A)p.d(A)[sp].d(T)[sp].d([m5C])[sp].d(T)[sp].d(T)[sp].d(T)[sp].d(A)[sp].d(T)[sp].d([m5C])[sp].d(A)[sp].[moe](G)p.[moe](G)[sp].[moe](T)}$$$$ (last 3' nucleoside missing)”, the 3 h FOB score was 1 score 0-7.
For “RNA1{[moe](G)[sp].[moe](G)p.[moe]([m5C])p.[moe](T)[sp].d(G)[sp].d([m5C])[sp].d(G)[sp].d(G)[sp].d(T)[sp].d(T)[sp].d(G)[sp].d(T)[sp].[moe](T)p.[moe](T)p.[moe]([m5C])p.[moe]([m5C])[sp].[moe]([m5C])}$$$$ (last 3' nucleoside missing)”, the 3 h FOB score worked out at 6 score 0-7.
Regarding “RNA1{[moe](G)[sp].[moe](G)p.[moe]([m5C])p.[moe](T)p.[moe](G)p.[moe]([m5C])[sp].d(G)[sp].d(G)[sp].d(T)[sp].d(T)[sp].d(G)[sp].d(T)[sp].d(T)[sp].d(T)[sp].[moe]([m5C])p.[moe]([m5C])[sp].[moe]([m5C])}$$$$ (last 3' nucleoside missing)”, the 3 h FOB score amounted to 2.5 score 0-7.
“RNA1{[moe]([m5C])[sp].[moe]([m5C])p.[moe]([m5C])p.[moe]([m5C])p.d(T)[sp].d(A)[sp].d(G)[sp].d([m5C])[sp].d(G)[sp].d([m5C])[sp].d(G)[sp].d([m5C])[sp].d(G)[sp].d(A)[sp].[moe]([m5C])p.[moe](T)p.[moe]([m5C])p.[moe]([m5C])[sp].[moe](T)}$$$$ (last 3' nucleoside missing)” returned a 3 h FOB score of 3.75 score 0-7.

The values are drawn from the OligoGym collection.
